Laboratory results: PubChem BioAssay (NCI)
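Grown in 96-well plates, cells were treated for 48 hours with each compound at five concentrations. Insufficient inhibition: endpoint recorded as highest concentration tested. GI50 is the concentration that inhibits growth by half. At the TGI there is no net growth.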

Assays:
Experiment in all cases: inhibition of tumour cell growth, NCI panel, 48 h
RPMI-8226 leukemia = system: RPMI-8226 leukemia
A549 NSCLC = system: A549 NSCLC
MDA-MB-435 = system: MDA-MB-435
HCT-116 colon = system: HCT-116 colon
HOP-62 NSCLC = system: HOP-62 NSCLC
SF-268 CNS = system: SF-268 CNS
SN12C renal = system: SN12C renal
NCI/ADR-RES ovarian = system: NCI/ADR-RES ovarian
MCF7 breast = system: MCF7 breast
IGROV1 ovarian = system: IGROV1 ovarian
BT-549 breast = system: BT-549 breast
NCI-H23 lung = system: NCI-H23 lung
EKVX NSCLC = system: EKVX NSCLC
U251 CNS = system: U251 CNS
A498 renal = system: A498 renal
M14 melanoma = system: M14 melanoma
T-47D breast = system: T-47D breast
HS 578T breast = system: HS 578T breast
SK-MEL-2 melanoma = system: SK-MEL-2 melanoma
TK-10 renal = system: TK-10 renal
COLO 205 colon = system: COLO 205 colon
SNB-75 CNS = system: SNB-75 CNS
MALME-3M melanoma = system: MALME-3M melanoma
UO-31 renal = system: UO-31 renal
HOP-92 NSCLC = system: HOP-92 NSCLC
SK-OV-3 ovarian = system: SK-OV-3 ovarian
CCRF-CEM leukemia = system: CCRF-CEM leukemia
NCI-H226 lung = system: NCI-H226 lung
SW-620 colon = system: SW-620 colon
CAKI-1 renal = system: CAKI-1 renal
MOLT-4 leukemia = system: MOLT-4 leukemia
HCT-15 colon = system: HCT-15 colon
RXF 393 renal = system: RXF 393 renal
K-562 leukemia = system: K-562 leukemia
OVCAR-3 ovarian = system: OVCAR-3 ovarian
SK-MEL-28 melanoma = system: SK-MEL-28 melanoma
NCI-H522 lung = system: NCI-H522 lung
OVCAR-5 ovarian = system: OVCAR-5 ovarian
HCC-2998 colon = system: HCC-2998 colon
SNB-19 CNS = system: SNB-19 CNS
SK-MEL-5 melanoma = system: SK-MEL-5 melanoma
LOX IMVI melanoma = system: LOX IMVI melanoma
NCI-H460 lung = system: NCI-H460 lung
SR leukemia = system: SR leukemia
MDA-MB-231 breast = system: MDA-MB-231 breast
DU-145 prostate = system: DU-145 prostate
OVCAR-4 ovarian = system: OVCAR-4 ovarian
UACC-62 melanoma = system: UACC-62 melanoma
SF-539 CNS = system: SF-539 CNS
KM12 colon = system: KM12 colon
PC-3 prostate = system: PC-3 prostate
ACHN renal = system: ACHN renal
OVCAR-8 ovarian = system: OVCAR-8 ovarian
HL-60(TB) leukemia = system: HL-60(TB) leukemia
SF-295 CNS = system: SF-295 CNS
UACC-257 melanoma = system: UACC-257 melanoma
786-0 renal = system: 786-0 renal

O=C1c2c(c(=O)[nH]c3ccccc23)[C@H](c2ccccc2)[C@@H]2CCCN12
GI50 (RPMI-8226 leukemia): 4.83 µM
TGI (RPMI-8226 leukemia): 48.4 µM
GI50 (A549 NSCLC): 20.2 µM
TGI (A549 NSCLC): > 100 µM
GI50 (MDA-MB-435): 3.7 µM
TGI (MDA-MB-435): 15.2 µM
GI50 (HCT-116 colon): 2540 nM
TGI (HCT-116 colon): > 100 µM
GI50 (HOP-62 NSCLC): 4.32 µM
TGI (HOP-62 NSCLC): 34 µM
GI50 (SF-268 CNS): 3.68 µM
TGI (SF-268 CNS): 23 µM
GI50 (SN12C renal): 3.38 µM
TGI (SN12C renal): > 100 µM
GI50 (NCI/ADR-RES ovarian): 3.05 µM
TGI (NCI/ADR-RES ovarian): 36.4 µM
GI50 (MCF7 breast): 2570 nM
TGI (MCF7 breast): 9.38 µM
GI50 (IGROV1 ovarian): 3.59 µM
TGI (IGROV1 ovarian): 15.6 µM
GI50 (BT-549 breast): 4.84 µM
TGI (BT-549 breast): 55.2 µM
GI50 (NCI-H23 lung): 2770 nM
TGI (NCI-H23 lung): 37.9 µM
GI50 (EKVX NSCLC): 13.5 µM
TGI (EKVX NSCLC): 55.8 µM
GI50 (U251 CNS): 3.37 µM
TGI (U251 CNS): 18.3 µM
GI50 (A498 renal): 1930 nM
TGI (A498 renal): 9.09 µM
GI50 (M14 melanoma): 3.53 µM
TGI (M14 melanoma): 14.5 µM
GI50 (T-47D breast): 3.46 µM
TGI (T-47D breast): 9.2 µM
GI50 (HS 578T breast): 2890 nM
TGI (HS 578T breast): 11.1 µM
GI50 (SK-MEL-2 melanoma): 4.17 µM
TGI (SK-MEL-2 melanoma): 46.7 µM
GI50 (TK-10 renal): 20.5 µM
TGI (TK-10 renal): > 100 µM
GI50 (COLO 205 colon): 14.6 µM
TGI (COLO 205 colon): 44.5 µM
GI50 (SNB-75 CNS): 2640 nM
TGI (SNB-75 CNS): 16.9 µM
GI50 (MALME-3M melanoma): 6.87 µM
TGI (MALME-3M melanoma): 43.8 µM
GI50 (UO-31 renal): 2100 nM
TGI (UO-31 renal): 7.05 µM
GI50 (HOP-92 NSCLC): 2940 nM
TGI (HOP-92 NSCLC): 15.7 µM
GI50 (SK-OV-3 ovarian): 9.56 µM
TGI (SK-OV-3 ovarian): 80 µM
GI50 (CCRF-CEM leukemia): 4.61 µM
TGI (CCRF-CEM leukemia): > 100 µM
GI50 (NCI-H226 lung): 2050 nM
TGI (NCI-H226 lung): 13.8 µM
GI50 (SW-620 colon): 3.38 µM
TGI (SW-620 colon): > 100 µM
GI50 (CAKI-1 renal): 17.6 µM
TGI (CAKI-1 renal): 68.2 µM
GI50 (MOLT-4 leukemia): 5.12 µM
TGI (MOLT-4 leukemia): 39.2 µM
GI50 (HCT-15 colon): 3.37 µM
TGI (HCT-15 colon): > 100 µM
GI50 (RXF 393 renal): 1880 nM
TGI (RXF 393 renal): 4.34 µM
GI50 (K-562 leukemia): 5.63 µM
TGI (K-562 leukemia): > 100 µM
GI50 (OVCAR-3 ovarian): 2460 nM
TGI (OVCAR-3 ovarian): 7.1 µM
GI50 (SK-MEL-28 melanoma): 3.69 µM
TGI (SK-MEL-28 melanoma): 32.9 µM
GI50 (NCI-H522 lung): 8.56 µM
TGI (NCI-H522 lung): > 100 µM
GI50 (OVCAR-5 ovarian): 2700 nM
TGI (OVCAR-5 ovarian): 9.59 µM
GI50 (HCC-2998 colon): 10.9 µM
TGI (HCC-2998 colon): 69.6 µM
GI50 (SNB-19 CNS): 3.93 µM
TGI (SNB-19 CNS): > 100 µM
GI50 (SK-MEL-5 melanoma): 2010 nM
TGI (SK-MEL-5 melanoma): 5.07 µM
GI50 (LOX IMVI melanoma): 2300 nM
TGI (LOX IMVI melanoma): 11.8 µM
GI50 (NCI-H460 lung): 2830 nM
TGI (NCI-H460 lung): 16.5 µM
GI50 (SR leukemia): 2610 nM
TGI (SR leukemia): 36.7 µM
GI50 (MDA-MB-231 breast): 3.06 µM
TGI (MDA-MB-231 breast): 27.5 µM
GI50 (DU-145 prostate): 3.38 µM
TGI (DU-145 prostate): 27.5 µM
GI50 (OVCAR-4 ovarian): 2630 nM
TGI (OVCAR-4 ovarian): 11.6 µM
GI50 (UACC-62 melanoma): 3.14 µM
TGI (UACC-62 melanoma): 22.3 µM
GI50 (SF-539 CNS): 2600 nM
TGI (SF-539 CNS): 6.7 µM
GI50 (KM12 colon): 3.08 µM
TGI (KM12 colon): 13.6 µM
GI50 (PC-3 prostate): 6.2 µM
TGI (PC-3 prostate): > 100 µM
GI50 (ACHN renal): 2640 nM
TGI (ACHN renal): 14.9 µM
GI50 (OVCAR-8 ovarian): 3.62 µM
TGI (OVCAR-8 ovarian): > 100 µM
GI50 (HL-60(TB) leukemia): 1980 nM
TGI (HL-60(TB) leukemia): 8.29 µM
GI50 (SF-295 CNS): 8.72 µM
TGI (SF-295 CNS): 47.8 µM
GI50 (UACC-257 melanoma): 5.13 µM
TGI (UACC-257 melanoma): 53 µM
GI50 (786-0 renal): 4.61 µM
TGI (786-0 renal): > 100 µM
